Laboratory results reported in patent publication US20240327382A1 (ALMAC DISCOVERY LIMITED, priority 2021, published 2024).
pIC50: −log10 of the molar value.

What follows are compounds tested against T1, Full-length USP19 (Homo sapiens, UniProt O94966) (assay: USP19 fluorescence polarisation (FP) assay, Ubiquitin-Lys-TAMRA substrate). Details: average of at least two duplicate experiments.
T1 construct: Full-length USP19 was purchased from Boston Biochem (E-576); purchased Boston Biochem E-576
T1 sequence (O94966 1-1318): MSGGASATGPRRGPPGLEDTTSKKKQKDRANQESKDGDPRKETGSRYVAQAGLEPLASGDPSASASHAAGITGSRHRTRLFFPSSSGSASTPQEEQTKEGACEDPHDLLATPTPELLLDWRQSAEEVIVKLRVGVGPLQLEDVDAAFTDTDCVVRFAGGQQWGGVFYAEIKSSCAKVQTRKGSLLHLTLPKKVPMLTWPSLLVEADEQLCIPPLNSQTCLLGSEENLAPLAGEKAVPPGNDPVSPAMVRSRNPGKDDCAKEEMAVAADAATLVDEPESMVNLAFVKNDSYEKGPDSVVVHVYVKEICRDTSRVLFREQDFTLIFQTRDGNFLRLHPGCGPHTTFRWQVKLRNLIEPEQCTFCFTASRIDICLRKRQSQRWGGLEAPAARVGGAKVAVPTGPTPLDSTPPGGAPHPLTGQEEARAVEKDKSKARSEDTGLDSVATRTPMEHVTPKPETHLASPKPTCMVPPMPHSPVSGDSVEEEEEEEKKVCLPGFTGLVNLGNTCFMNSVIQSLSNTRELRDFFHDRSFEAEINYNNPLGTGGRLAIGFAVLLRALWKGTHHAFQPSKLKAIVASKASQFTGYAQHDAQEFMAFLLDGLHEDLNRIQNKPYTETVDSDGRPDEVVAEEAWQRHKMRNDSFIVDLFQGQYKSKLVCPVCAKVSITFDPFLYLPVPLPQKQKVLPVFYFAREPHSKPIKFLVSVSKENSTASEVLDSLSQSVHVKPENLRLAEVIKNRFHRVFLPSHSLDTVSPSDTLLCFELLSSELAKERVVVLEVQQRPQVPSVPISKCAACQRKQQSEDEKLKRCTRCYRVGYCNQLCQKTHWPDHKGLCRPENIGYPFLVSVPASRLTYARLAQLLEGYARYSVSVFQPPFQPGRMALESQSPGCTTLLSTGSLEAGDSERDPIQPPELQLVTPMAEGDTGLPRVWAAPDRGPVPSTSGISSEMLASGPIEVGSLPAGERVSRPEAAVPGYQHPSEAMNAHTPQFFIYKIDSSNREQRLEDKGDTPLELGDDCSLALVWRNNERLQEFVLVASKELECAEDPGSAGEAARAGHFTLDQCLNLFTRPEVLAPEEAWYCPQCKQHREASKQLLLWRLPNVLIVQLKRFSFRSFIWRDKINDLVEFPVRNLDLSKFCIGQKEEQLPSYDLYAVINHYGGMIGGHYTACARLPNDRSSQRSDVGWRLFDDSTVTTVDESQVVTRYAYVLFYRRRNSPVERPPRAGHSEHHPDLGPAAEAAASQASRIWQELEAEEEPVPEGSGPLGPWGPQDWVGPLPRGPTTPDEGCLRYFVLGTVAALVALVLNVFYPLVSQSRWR
Assay type: biochemical
Experimental: USP19 activity was determined in a fluorescence polarisation (FP) homogeneous assay using the isopeptide Ubiquitin-Lys-TAMRA substrate (either AUB-101, Almac Sciences Scotland Limited, or U-558, Boston Biochem, both of which gave identical results). Full-length USP19 was purchased from Boston Biochem (E-576). Unless otherwise stated, all other reagents were purchased from Sigma. Enzymatic reactions were conducted in black flat bottom polystyrene 384-well plates (Nunc) and 30 μL total volume. USP19 (2.5 nM, 10 μL) was incubated in assay buffer (50 mM HEPES (pH 7.4), 150 mM NaCl, 5 mM DTT, 0.05% BSA (w/v), 0.05% CHAPS) in the presence or absence of inhibitor (10 μL). Inhibitors were stored as 10 mM DMSO stocks in an inert environment (low humidity, dark, low oxygen, rt) using the StoragePod® system (Roylan Developments) and serial dilutions were prepared in buffer just prior to the assay (from 200 μM to 2 μM, 8-18 data point curve). Following incubation at RT for 30 min, the enzymatic reactions were initiated by dispensing the Ub substrate (500 nM, 10 μL). FP was measured every 15 min over a period of 90 min (within the linear range of the assay) using a Synergy 4 plate reader (BioTek) exciting at 530 nm and measuring the amount of parallel and perpendicular light at 575 nm. The FP signal was subsequently normalised to the no compound control. Data were plotted and fitted, and the concentrations resulting in 50% inhibition (IC50) were calculated using the non-linear regression curve fitting model using GraphPad (Prism). IC50 values for the inhibitors of the invention are compiled in Tables 1 and 3 and represent the average of at least two duplicate experiments.

pIC50	SMILES
6.00 to 7.00	O=C(N1CC[C@H](Cn2cnc(-c3ccccc3)cc2=O)C2(CCCC2)C1)N1CCNC[C@H]1c1ccccc1 (single isomer, unassigned) [Example 13]
7.00 to 8.00	COc1ccccc1-c1cc(=O)n(C[C@@H]2CCN(C(=O)N3CC[C@@H](N4CCOCC4)C[C@H]3c3ccccc3)CC23CCCC3)cn1 [Example 110, 6-(2-Methoxyphenyl)-3-(((R)-7-((2S,4R)-4-morpholino-2-phenylpiperidine-1-carbonyl)-7-azaspiro[4.5]decan-10-yl)methyl)pyrimidin-4(3H)-one]
> 8.00	CN[C@H]1C[C@@H](c2ccccc2)N(C(=O)N2CC[C@@H](Cn3cnc(-c4ccccc4)cc3=O)C3(CCCC3)C2)C1 [Example 90, 3-(((R)-7-((2S,4S)-4-(Methylamino)-2-phenylpyrrolidine-1-carbonyl)-7-azaspiro[4.5]decan-10-yl)methyl)-6-phenylpyrimidin-4(3H)-one]
> 8.00	N[C@@H]1CCN(C(=O)N2CC[C@@H](Cn3cnc(-c4ccccc4)cc3=O)C3(CCCC3)C2)[C@H](c2ccc(F)cc2F)C1 [Example 80, 3-(((R)-7-((2S,4R)-4-Amino-2-(2,4-difluorophenyl)piperidine-1-carbonyl)-7-azaspiro[4.5]decan-10-yl)methyl)-6-phenylpyrimidin-4(3H)-one]
> 8.00	N[C@@H]1CCN(C(=O)N2CCC(Cn3cnc4ccc(F)cc4c3=O)C3(CCCC3)C2)[C@H](c2ccccc2)C1 (stereo partly drawn) [Example 27, 3-((7-((2S,4R)-4-Amino-2-phenylpiperidine-1-carbonyl)-7-azaspiro[4.5]decan-10-yl)methyl)-6-fluoroquinazolin-4(3H)-one]
7.00 to 8.00	O=C(N[C@@H]1CCN(C(=O)N2CC[C@@H](Cn3cnc4ccc(F)cc4c3=O)C3(CCCC3)C2)[C@H](c2cc(F)ccc2F)C1)C1CC1 [Example 173, N-((2S,4R)-2-(2,5-Difluorophenyl)-1-((R)-10-((6-fluoro-4-oxoquinazolin-3(4H)-yl)methyl)-7-azaspiro[4.5]decane-7-carbonyl)piperidin-4-yl)cyclopropanecarboxamide]
6.00 to 7.00	C[C@@]1(O)CCN(C(=O)N2CC[C@@H](Cn3ccc(-c4ccccc4)cc3=O)C3(CCCC3)C2)[C@H](c2ccccc2)C1 [Example 52, 1-(((R)-7-((2S,4R)-4-Hydroxy-4-methyl-2-phenylpiperidine-1-carbonyl)-7-azaspiro[4.5]decan-10-yl)methyl)-4-phenylpyridin-2(1H)-one]
> 8.00	CN[C@@H]1CCN(C(=O)N2CC[C@@H](Cn3cnc4ccc(F)cc4c3=O)C3(CCCC3)C2)[C@H](c2cc(F)ccc2F)C1 [Example 125, 3-(((R)-7-((2S,4R)-2-(2,5-Difluorophenyl)-4-(methylamino)piperidine-1-carbonyl)-7-azaspiro[4.5]decan-10-yl)methyl)-6-fluoroquinazolin-4(3H)-one]
7.00 to 8.00	N[C@@H]1CCN(C(=O)N2CCC(Cn3ccncc3=O)C3(CCCC3)C2)[C@H](c2ccccc2)C1 (stereo partly drawn) [Example 31, 1-((7-((2S,4R)-4-Amino-2-phenylpiperidine-1-carbonyl)-7-azaspiro[4.5]decan-10-yl)methyl)pyrazin-2(1H)-one]
> 8.00	COc1ccccc1-c1cc(=O)n(C[C@@H]2CCN(C(=O)N3CC[C@@H](NCC(F)F)C[C@H]3c3cc(F)ccc3F)CC23CCCC3)cn1 [Example 134, 3-(((R)-7-((2S,4R)-4-((2,2-Difluoroethyl)amino)-2-(2,5-difluorophenyl)piperidine-1-carbonyl)-7-azaspiro[4.5]decan-10-yl)methyl)-6-(2-methoxyphenyl)pyrimidin-4(3H)-one]
7.00 to 8.00	CC1(C)CN(C(=O)N2CCNC[C@H]2c2ccccc2)CCC1Cn1ccc(-c2ccccc2)cc1=O (stereo partly drawn) [Example 20, 1-((3,3-Dimethyl-1-((R)-2-phenylpiperazine-1-carbonyl)piperidin-4-yl)methyl)-4-phenylpyridin-2(1H)-one]
> 8.00	CC1(C)CN(C(=O)N2CC[C@@H](N)C[C@H]2c2ccccc2)CC[C@H]1Cn1ccc(-c2ccccc2)cc1=O [Example 69, 1-(((R)-1-((2S,4R)-4-Amino-2-phenylpiperidine-1-carbonyl)-3,3-dimethylpiperidin-4-yl)methyl)-4-phenylpyridin-2(1H)-one]
7.00 to 8.00	CCN[C@@H]1CCN(C(=O)N2CCC(Cn3cnc(-c4ccccc4)cc3=O)CC2)[C@H](c2ccccc2)C1 [Example 75, 3-((1-((2S,4R)-4-(Ethylamino)-2-phenylpiperidine-1-carbonyl)piperidin-4-yl)methyl)-6-phenylpyrimidin-4(3H)-one]
> 8.00	COCCN[C@@H]1CCN(C(=O)N2CC[C@@H](Cn3cnc(-c4ccccc4)cc3=O)C3(CCCC3)C2)[C@H](c2cccc(F)c2)C1 [Example 195, 3-(((R)-7-((2S,4R)-2-(3-Fluorophenyl)-4-((2-methoxyethyl)amino)piperidine-1-carbonyl)-7-azaspiro[4.5]decan-10-yl)methyl)-6-phenylpyrimidin-4(3H)-one]
> 8.00	N[C@H]1C[C@@H](c2ccccc2)N(C(=O)N2CC[C@@H](Cn3ccc(-c4ccccc4)cc3=O)C3(CCCC3)C2)C[C@H]1F (racemic) [Example 85, 1-(((R)-7-((2S,4S,5R)-4-Amino-5-fluoro-2-phenylpiperidine-1-carbonyl)-7-azaspiro[4.5]decan-10-yl)methyl)-4-phenylpyridin-2(1H)-one and 1-(((R)-7-((2S,4S,5S)-4-Amino-5-fluoro-2-phenylpiperidine-1-carbonyl)-7-azaspiro[4.5]decan-10-yl)methyl)-4-phenylpyridin-2(1H)-one]
> 8.00	COc1ccccc1-c1cc(=O)n(C[C@@H]2CCN(C(=O)N3CCNC[C@H]3c3cc(F)ccc3F)CC23CCCC3)cn1 [Example 116, 3-(((R)-7-((R)-2-(2,5-Difluorophenyl)piperazine-1-carbonyl)-7-azaspiro[4.5]decan-10-yl)methyl)-6-(2-methoxyphenyl)pyrimidin-4(3H)-one]
7.00 to 8.00	O=C(N[C@@H]1CCN(C(=O)N2CC[C@@H](Cn3cnc(-c4ccccc4)cc3=O)C3(CCCC3)C2)[C@H](c2cc(F)ccc2F)C1)c1ccccn1 [Example 165, N-((2S,4R)-2-(2,5-Difluorophenyl)-1-((R)-10-((6-oxo-4-phenylpyrimidin-1(6H)-yl)methyl)-7-azaspiro[4.5]decane-7-carbonyl)piperidin-4-yl)picolinamide]
7.00 to 8.00	N[C@@H]1CCN(C(=O)N2CCC(Cn3ccc(C(F)(F)F)cc3=O)C3(CCCC3)C2)[C@H](c2ccccc2)C1 (stereo partly drawn) [Example 43, 1-((7-((2S,4R)-4-Amino-2-phenylpiperidine-1-carbonyl)-7-azaspiro[4.5]decan-10-yl)methyl)-4-(trifluoromethyl) pyridin-2(1H)-one]
> 8.00	CN[C@@H]1CCN(C(=O)N2CC[C@@H](Cn3cnc(-c4ccccc4OC)cc3=O)C3(CCCC3)C2)[C@H](c2cc(F)ccc2F)C1 [Example 99, 3-(((R)-7-((2S,4R)-2-(2,5-Difluorophenyl)-4-(methylamino)piperidine-1-carbonyl)-7-azaspiro[4.5]decan-10-yl)methyl)-6-(2-methoxyphenyl)pyrimidin-4(3H)-one]
